Assay results as given in patent publication US11370770B2, “3-arylindazoles as selective MEK4 inhibitors” (priority 2019, dated 2022).

Tests used:
PHKG2 = PHKG2 (Homo sapiens (Human), UniProt P15735); assay: KINOMEscan binding assay; settings: percent of control
ICK = ICK (Homo sapiens (Human), UniProt Q9UPZ9); assay: KINOMEscan binding assay; settings: percent of control
PIK4CB = PIK4CB (Homo sapiens (Human), UniProt Q9UBF8); assay: KINOMEscan binding assay; settings: percent of control
ALK(L1196M) = ALK(L1196M) (Homo sapiens (Human), UniProt Q9UM73, L1196M); assay: KINOMEscan binding assay; settings: percent of control
ALK(L1196M), sequence (Q9UM73 19-1620 L1196M): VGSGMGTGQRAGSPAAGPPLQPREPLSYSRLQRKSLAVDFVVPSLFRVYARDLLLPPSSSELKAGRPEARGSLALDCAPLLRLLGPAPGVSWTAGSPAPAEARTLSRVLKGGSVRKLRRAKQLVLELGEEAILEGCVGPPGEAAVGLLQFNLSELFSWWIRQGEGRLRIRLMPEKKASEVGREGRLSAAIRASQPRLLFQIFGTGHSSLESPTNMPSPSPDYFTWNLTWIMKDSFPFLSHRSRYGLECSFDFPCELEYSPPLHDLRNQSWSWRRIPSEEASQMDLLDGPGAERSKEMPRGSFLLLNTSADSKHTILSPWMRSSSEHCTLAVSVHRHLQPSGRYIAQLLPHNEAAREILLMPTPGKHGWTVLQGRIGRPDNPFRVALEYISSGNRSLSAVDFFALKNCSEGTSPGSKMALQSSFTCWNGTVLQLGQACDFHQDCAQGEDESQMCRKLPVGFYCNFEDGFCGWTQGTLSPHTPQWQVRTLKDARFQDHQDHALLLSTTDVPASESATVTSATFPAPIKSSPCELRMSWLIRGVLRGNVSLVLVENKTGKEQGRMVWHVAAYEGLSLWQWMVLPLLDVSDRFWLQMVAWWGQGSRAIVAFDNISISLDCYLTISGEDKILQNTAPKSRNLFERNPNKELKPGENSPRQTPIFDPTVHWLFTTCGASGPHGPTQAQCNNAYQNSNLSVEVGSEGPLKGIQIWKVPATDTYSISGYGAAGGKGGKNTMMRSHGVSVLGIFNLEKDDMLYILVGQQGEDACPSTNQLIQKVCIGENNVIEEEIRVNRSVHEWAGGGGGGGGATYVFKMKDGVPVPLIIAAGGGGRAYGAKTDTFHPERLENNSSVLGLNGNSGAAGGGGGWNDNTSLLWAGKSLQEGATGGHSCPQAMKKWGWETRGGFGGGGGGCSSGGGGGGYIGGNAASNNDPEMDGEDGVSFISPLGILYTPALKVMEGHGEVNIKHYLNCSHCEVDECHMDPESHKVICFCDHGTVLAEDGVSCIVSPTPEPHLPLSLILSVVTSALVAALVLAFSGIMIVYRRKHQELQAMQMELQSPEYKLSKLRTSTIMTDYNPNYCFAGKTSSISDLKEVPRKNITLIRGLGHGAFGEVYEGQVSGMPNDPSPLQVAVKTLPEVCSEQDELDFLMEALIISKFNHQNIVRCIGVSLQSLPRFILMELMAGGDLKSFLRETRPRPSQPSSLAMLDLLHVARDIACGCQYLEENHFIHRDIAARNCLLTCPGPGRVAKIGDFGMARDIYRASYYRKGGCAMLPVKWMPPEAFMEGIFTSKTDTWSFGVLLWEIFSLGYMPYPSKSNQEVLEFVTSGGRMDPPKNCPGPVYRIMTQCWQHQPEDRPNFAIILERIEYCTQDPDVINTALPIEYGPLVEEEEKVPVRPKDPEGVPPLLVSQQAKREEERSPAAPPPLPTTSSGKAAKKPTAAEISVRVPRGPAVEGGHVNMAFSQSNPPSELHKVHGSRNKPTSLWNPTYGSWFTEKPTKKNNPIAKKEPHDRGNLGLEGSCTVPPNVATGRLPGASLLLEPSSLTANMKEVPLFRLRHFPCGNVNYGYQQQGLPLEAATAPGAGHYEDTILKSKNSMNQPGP

AAK1 = AAK1 (Homo sapiens (Human), UniProt Q2M2I8); assay: KINOMEscan binding assay; settings: percent of control
PRP6 = assay: KINOMEscan binding assay; settings: percent of control
MRCKA = MRCKA (Homo sapiens (Human), UniProt Q5VT25); assay: KINOMEscan binding assay; settings: percent of control
MRCKA, sequence (Q5VT25 whole entry): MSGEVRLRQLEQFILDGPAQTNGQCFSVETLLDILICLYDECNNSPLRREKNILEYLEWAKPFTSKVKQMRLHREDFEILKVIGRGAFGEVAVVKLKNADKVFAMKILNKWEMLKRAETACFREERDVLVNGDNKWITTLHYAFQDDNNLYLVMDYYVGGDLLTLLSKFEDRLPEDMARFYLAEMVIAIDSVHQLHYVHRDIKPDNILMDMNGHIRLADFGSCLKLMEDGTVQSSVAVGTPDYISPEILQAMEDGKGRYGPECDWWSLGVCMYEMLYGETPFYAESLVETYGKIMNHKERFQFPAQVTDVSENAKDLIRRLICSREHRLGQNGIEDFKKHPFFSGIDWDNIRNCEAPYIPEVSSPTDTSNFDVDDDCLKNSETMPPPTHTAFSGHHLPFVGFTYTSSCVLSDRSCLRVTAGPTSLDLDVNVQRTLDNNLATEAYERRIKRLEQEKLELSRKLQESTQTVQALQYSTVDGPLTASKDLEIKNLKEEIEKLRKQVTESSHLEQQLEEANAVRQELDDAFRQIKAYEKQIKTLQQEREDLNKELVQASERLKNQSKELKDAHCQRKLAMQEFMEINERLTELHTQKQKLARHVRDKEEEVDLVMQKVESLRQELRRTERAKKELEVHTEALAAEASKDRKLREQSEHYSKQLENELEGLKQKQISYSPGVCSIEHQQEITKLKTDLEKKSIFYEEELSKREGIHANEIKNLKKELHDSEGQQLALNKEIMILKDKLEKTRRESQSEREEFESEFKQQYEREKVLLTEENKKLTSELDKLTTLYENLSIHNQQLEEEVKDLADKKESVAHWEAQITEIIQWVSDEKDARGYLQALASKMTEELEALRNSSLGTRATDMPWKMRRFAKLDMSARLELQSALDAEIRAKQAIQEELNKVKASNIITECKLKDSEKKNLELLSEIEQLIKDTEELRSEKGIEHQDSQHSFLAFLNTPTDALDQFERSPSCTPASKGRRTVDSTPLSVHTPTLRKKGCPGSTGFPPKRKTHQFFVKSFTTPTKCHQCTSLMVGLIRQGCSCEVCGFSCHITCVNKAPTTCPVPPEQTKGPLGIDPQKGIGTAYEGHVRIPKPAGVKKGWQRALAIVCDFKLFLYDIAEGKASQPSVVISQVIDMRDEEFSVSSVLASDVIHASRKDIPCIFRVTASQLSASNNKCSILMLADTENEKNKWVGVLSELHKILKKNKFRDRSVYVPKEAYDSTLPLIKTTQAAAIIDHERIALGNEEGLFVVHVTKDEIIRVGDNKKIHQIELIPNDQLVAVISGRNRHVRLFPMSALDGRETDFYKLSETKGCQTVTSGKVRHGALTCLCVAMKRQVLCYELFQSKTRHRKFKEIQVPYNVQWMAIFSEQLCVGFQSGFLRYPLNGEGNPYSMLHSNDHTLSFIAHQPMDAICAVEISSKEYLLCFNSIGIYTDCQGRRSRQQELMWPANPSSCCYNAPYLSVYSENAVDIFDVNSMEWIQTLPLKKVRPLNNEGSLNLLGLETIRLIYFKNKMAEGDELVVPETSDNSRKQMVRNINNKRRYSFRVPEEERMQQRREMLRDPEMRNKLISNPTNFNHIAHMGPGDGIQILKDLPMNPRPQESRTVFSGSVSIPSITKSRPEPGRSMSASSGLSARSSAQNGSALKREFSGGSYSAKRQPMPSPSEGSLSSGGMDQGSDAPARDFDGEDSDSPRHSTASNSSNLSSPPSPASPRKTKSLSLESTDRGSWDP

HIPK1 = HIPK1 (Homo sapiens (Human), UniProt Q86Z02); assay: KINOMEscan binding assay; settings: percent of control
[1] = target: (Homo sapiens (Human), UniProt P49761); assay: KINOMEscan binding assay; settings: C;L3; percent of control
VEGFR2 = VEGFR2 (Homo sapiens (Human), UniProt P35968); assay: KINOMEscan binding assay; settings: percent of control
MEK1 = MEK1 (Homo sapiens (Human), UniProt Q02750); assay: MEK family profiling ADP-Glo, MEK1; format: biochemical; settings: Erk2 substrate; 0.6 μM ATP; read-out: IC50 MEK isoform 1
MEK3 = MEK3 (Homo sapiens (Human), UniProt P46734); assay: MEK family profiling ADP-Glo, MEK3; format: biochemical; settings: p38α substrate; 0.6 μM ATP; read-out: IC50 MEK isoform 3
PRKG1 = PRKG1 (Homo sapiens (Human), UniProt Q13976); assay: KINOMEscan binding assay; settings: percent of control
PRKG1, sequence (Q13976 whole entry): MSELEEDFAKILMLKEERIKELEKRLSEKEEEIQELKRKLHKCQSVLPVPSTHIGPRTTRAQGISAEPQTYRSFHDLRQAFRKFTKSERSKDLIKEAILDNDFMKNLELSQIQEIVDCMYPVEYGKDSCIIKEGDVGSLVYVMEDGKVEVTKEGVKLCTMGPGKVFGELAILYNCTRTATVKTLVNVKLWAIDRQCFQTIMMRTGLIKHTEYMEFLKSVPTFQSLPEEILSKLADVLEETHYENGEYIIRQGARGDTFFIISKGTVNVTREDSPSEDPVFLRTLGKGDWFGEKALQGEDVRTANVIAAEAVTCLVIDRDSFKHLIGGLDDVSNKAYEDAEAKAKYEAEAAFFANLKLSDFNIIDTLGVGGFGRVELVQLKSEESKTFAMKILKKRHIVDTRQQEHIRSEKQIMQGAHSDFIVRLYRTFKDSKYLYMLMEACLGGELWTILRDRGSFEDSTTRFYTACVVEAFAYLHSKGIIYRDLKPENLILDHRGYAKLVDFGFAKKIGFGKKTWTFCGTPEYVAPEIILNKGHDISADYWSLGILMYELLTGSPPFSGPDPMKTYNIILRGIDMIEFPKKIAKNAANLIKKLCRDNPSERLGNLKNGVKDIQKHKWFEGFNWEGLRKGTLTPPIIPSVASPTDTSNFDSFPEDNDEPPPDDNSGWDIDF

SNARK = SNARK (Homo sapiens (Human), UniProt Q9H093); assay: KINOMEscan binding assay; settings: percent of control
TEC = TEC (Homo sapiens (Human), UniProt P42680); assay: KINOMEscan binding assay; settings: percent of control
PCTK3 = PCTK3 (Homo sapiens (Human), UniProt Q07002); assay: KINOMEscan binding assay; settings: percent of control
[2] = target: EGFR(L747-S752DEL, P753S) (Homo sapiens (Human), UniProt P00533, DEL747-752/P753S); assay: KINOMEscan binding assay; settings: percent of control
MKNK2 = MKNK2 (Homo sapiens (Human), UniProt Q9HBH9); assay: KINOMEscan binding assay; settings: percent of control
MLK2 = MLK2 (Homo sapiens (Human), UniProt Q02779); assay: KINOMEscan binding assay; settings: percent of control
CHEK2 = CHEK2 (Homo sapiens (Human), UniProt O96017); assay: KINOMEscan binding assay; settings: percent of control
MEK5 [3] = target: T1, MEK5 (Homo sapiens (Human), UniProt Q13163); assay: MEK family profiling ADP-Glo, MEK5; format: biochemical; settings: Erk5 substrate; 0.6 μM ATP; read-out: IC50 MEK isoform 5
T1 sequence (Q13163 whole entry, canonical isoform): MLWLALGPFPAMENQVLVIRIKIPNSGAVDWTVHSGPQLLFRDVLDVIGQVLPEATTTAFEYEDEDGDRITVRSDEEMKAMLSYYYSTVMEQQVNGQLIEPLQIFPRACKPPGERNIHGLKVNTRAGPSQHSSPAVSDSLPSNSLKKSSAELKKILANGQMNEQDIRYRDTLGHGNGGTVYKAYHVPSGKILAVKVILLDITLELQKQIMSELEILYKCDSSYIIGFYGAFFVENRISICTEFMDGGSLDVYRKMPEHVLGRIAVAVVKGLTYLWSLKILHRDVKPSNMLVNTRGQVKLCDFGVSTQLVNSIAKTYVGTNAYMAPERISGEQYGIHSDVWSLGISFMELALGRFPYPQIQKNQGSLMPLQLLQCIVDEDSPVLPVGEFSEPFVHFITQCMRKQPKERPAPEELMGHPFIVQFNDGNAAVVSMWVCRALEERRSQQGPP

MUSK = MUSK (Homo sapiens (Human), UniProt O15146); assay: KINOMEscan binding assay; settings: percent of control
MEK5 [4] = target: T1, MEK5; assay: KINOMEscan binding assay; settings: percent of control
ABL1-phophorylated = ABL1-phophorylated (Homo sapiens (Human), UniProt P00519); assay: KINOMEscan binding assay; settings: percent of control
ERK2 = ERK2 (Homo sapiens (Human), UniProt P28482); assay: KINOMEscan binding assay; settings: percent of control
CDK2 = CDK2 (Homo sapiens (Human), UniProt P24941); assay: KINOMEscan binding assay; settings: percent of control
[5] = target: ABL1(T3151)-phosphorylated (Homo sapiens (Human), UniProt P00519, T315I); assay: KINOMEscan binding assay; settings: percent of control
IKK-ALPHA = IKK-ALPHA (Homo sapiens (Human), UniProt O15111); assay: KINOMEscan binding assay; settings: percent of control
ABL2 = ABL2 (Homo sapiens (Human), UniProt P42684); assay: KINOMEscan binding assay; settings: percent of control
EPHA2 = EPHA2 (Homo sapiens (Human), UniProt P29317); assay: KINOMEscan binding assay; settings: percent of control
NLK = NLK (Homo sapiens (Human), UniProt Q9UBE8); assay: KINOMEscan binding assay; settings: percent of control
EPHA6 = EPHA6 (Homo sapiens (Human), UniProt Q9UF33); assay: KINOMEscan binding assay; settings: percent of control
ZAP70 = ZAP70 (Homo sapiens (Human), UniProt P43403); assay: KINOMEscan binding assay; settings: percent of control
CDK9 = CDK9 (Homo sapiens (Human), UniProt P50750); assay: KINOMEscan binding assay; settings: percent of control
PKN2 = PKN2 (Homo sapiens (Human), UniProt Q16513); assay: KINOMEscan binding assay; settings: percent of control
CSML2A1 = CSML2A1 (Homo sapiens (Human), UniProt P68400); assay: KINOMEscan binding assay; settings: percent of control
MEK6 = MEK6 (Homo sapiens (Human), UniProt P52564); assay: KINOMEscan binding assay; settings: percent of control
CDC2L1 = CDC2L1 (Homo sapiens (Human), UniProt P21127); assay: KINOMEscan binding assay; settings: percent of control
MAP3K4 = MAP3K4 (Homo sapiens (Human), UniProt Q9Y6R4); assay: KINOMEscan binding assay; settings: percent of control
MEK2 = MEK2 (Homo sapiens (Human), UniProt P36507); assay: KINOMEscan binding assay; settings: percent of control
MKK7 = MKK7 (Homo sapiens (Human), UniProt O14733); assay: KINOMEscan binding assay; settings: percent of control
MKK7, sequence (O14733 whole entry): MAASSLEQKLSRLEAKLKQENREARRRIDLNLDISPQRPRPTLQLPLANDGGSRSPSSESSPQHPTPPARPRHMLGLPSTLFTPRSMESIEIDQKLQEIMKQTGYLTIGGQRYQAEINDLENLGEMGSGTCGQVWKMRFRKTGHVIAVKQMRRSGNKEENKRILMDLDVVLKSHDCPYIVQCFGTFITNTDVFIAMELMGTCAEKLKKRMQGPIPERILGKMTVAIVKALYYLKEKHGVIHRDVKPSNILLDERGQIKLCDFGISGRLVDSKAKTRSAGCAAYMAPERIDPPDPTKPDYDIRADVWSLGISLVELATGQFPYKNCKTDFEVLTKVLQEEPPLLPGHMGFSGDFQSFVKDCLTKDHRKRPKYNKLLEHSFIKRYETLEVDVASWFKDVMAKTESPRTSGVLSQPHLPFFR

Compound: O=C(O)c1cccc(-c2n[nH]c3ccccc23)c1 [Compound 6a, 3-(1H-indazol-3-yl)benzoic Acid]
- % Ctrl @ 10000 nM (PHKG2): 98 % Ctrl
- % Ctrl @ 10000 nM (ICK): 43 % Ctrl
- % Ctrl @ 10000 nM (PIK4CB): 0 % Ctrl
- % Ctrl @ 10000 nM (ALK(L1196M)): 59 % Ctrl
- % Ctrl @ 10000 nM (AAK1): 87 % Ctrl
- % Ctrl @ 10000 nM (PRP6): 76 % Ctrl
- % Ctrl @ 10000 nM (MRCKA): 95 % Ctrl
- % Ctrl @ 10000 nM (HIPK1): 43 % Ctrl
- % Ctrl @ 10000 nM [1]: 94 % Ctrl
- % Ctrl @ 10000 nM (VEGFR2): 20 % Ctrl
- IC50 (MEK1): 12 µM
- IC50 (MEK3): 16 µM
- % Ctrl @ 10000 nM (PRKG1): 100 % Ctrl
- % Ctrl @ 10000 nM (SNARK): 68 % Ctrl
- % Ctrl @ 10000 nM (TEC): 100 % Ctrl
- % Ctrl @ 10000 nM (PCTK3): 100 % Ctrl
- % Ctrl @ 10000 nM [2]: 85 % Ctrl
- % Ctrl @ 10000 nM (MKNK2): 66 % Ctrl
- % Ctrl @ 10000 nM (MLK2): 100 % Ctrl
- % Ctrl @ 10000 nM (CHEK2): 76 % Ctrl
- IC50 (MEK5 [3]): > 27 µM
- % Ctrl @ 10000 nM (MUSK): 100 % Ctrl
- % Ctrl @ 10000 nM (MEK5 [4]): 88 % Ctrl
- % Ctrl @ 10000 nM (ABL1-phophorylated): 86 % Ctrl
- % Ctrl @ 10000 nM (ERK2): 96 % Ctrl
- % Ctrl @ 10000 nM (CDK2): 97 % Ctrl
- % Ctrl @ 10000 nM [5]: 40 % Ctrl
- % Ctrl @ 10000 nM (IKK-ALPHA): 50 % Ctrl
- % Ctrl @ 10000 nM (ABL2): 100 % Ctrl
- % Ctrl @ 10000 nM (EPHA2): 92 % Ctrl
- % Ctrl @ 10000 nM (NLK): 97 % Ctrl
- % Ctrl @ 10000 nM (EPHA6): 97 % Ctrl
- % Ctrl @ 10000 nM (ZAP70): 70 % Ctrl
- % Ctrl @ 10000 nM (CDK9): 95 % Ctrl
- % Ctrl @ 10000 nM (PKN2): 100 % Ctrl
- % Ctrl @ 10000 nM (CSML2A1): 0.75 % Ctrl
- % Ctrl @ 10000 nM (MEK6): 91 % Ctrl
- % Ctrl @ 10000 nM (CDC2L1): 100 % Ctrl
- % Ctrl @ 10000 nM (MAP3K4): 90 % Ctrl
- % Ctrl @ 10000 nM (MEK2): 60 % Ctrl
- % Ctrl @ 10000 nM (MKK7): 66 % Ctrl

Compound: O=C(O)c1ccc(-c2n[nH]c3cc(F)ccc23)cc1 [Compound 6ff, 4-(6-fluoro-2H-indazol-3-yl)benzoic Acid]
- % Ctrl @ 10000 nM (PHKG2): 89 % Ctrl
- % Ctrl @ 10000 nM (ICK): 26 % Ctrl
- % Ctrl @ 10000 nM (PIK4CB): 28 % Ctrl
- % Ctrl @ 10000 nM (ALK(L1196M)): 61 % Ctrl
- % Ctrl @ 10000 nM (AAK1): 55 % Ctrl
- % Ctrl @ 10000 nM (PRP6): 52 % Ctrl
- % Ctrl @ 10000 nM (MRCKA): 89 % Ctrl
- % Ctrl @ 10000 nM (HIPK1): 48 % Ctrl
- % Ctrl @ 10000 nM [1]: 100 % Ctrl
- % Ctrl @ 10000 nM (VEGFR2): 3.5 % Ctrl
- IC50 (MEK1): 15 µM
- IC50 (MEK3): > 27 µM
- % Ctrl @ 10000 nM (PRKG1): 100 % Ctrl
- % Ctrl @ 10000 nM (SNARK): 53 % Ctrl
- % Ctrl @ 10000 nM (TEC): 100 % Ctrl
- % Ctrl @ 10000 nM (PCTK3): 100 % Ctrl
- % Ctrl @ 10000 nM [2]: 81 % Ctrl
- % Ctrl @ 10000 nM (MKNK2): 43 % Ctrl
- % Ctrl @ 10000 nM (MLK2): 95 % Ctrl
- % Ctrl @ 10000 nM (CHEK2): 39 % Ctrl
- IC50 (MEK5 [3]): > 27 µM
- % Ctrl @ 10000 nM (MUSK): 65 % Ctrl
- % Ctrl @ 10000 nM (MEK5 [4]): 44 % Ctrl
- % Ctrl @ 10000 nM (ABL1-phophorylated): 73 % Ctrl
- % Ctrl @ 10000 nM (ERK2): 100 % Ctrl
- % Ctrl @ 10000 nM (CDK2): 100 % Ctrl
- % Ctrl @ 10000 nM [5]: 12 % Ctrl
- % Ctrl @ 10000 nM (IKK-ALPHA): 14 % Ctrl
- % Ctrl @ 10000 nM (ABL2): 100 % Ctrl
- % Ctrl @ 10000 nM (EPHA2): 100 % Ctrl
- % Ctrl @ 10000 nM (NLK): 99 % Ctrl
- % Ctrl @ 10000 nM (EPHA6): 99 % Ctrl
- % Ctrl @ 10000 nM (ZAP70): 73 % Ctrl
- % Ctrl @ 10000 nM (CDK9): 98 % Ctrl
- % Ctrl @ 10000 nM (PKN2): 95 % Ctrl
- % Ctrl @ 10000 nM (CSML2A1): 0 % Ctrl
- % Ctrl @ 10000 nM (MEK6): 78 % Ctrl
- % Ctrl @ 10000 nM (CDC2L1): 100 % Ctrl
- % Ctrl @ 10000 nM (MAP3K4): 100 % Ctrl
- % Ctrl @ 10000 nM (MEK2): 61 % Ctrl
- % Ctrl @ 10000 nM (MKK7): 52 % Ctrl
